Experimental findings from patent US10208017B2, “Heterocycles capable of modulating T-cell responses, and methods of using same” (Nogra Pharma Limited, priority 2012, dated 2019) are described below.

Test [1] has as its system Human peripheral blood lymphocytes (PBLs) stimulated with PHA. Briefly: Inhibition of T lymphocyte proliferation (tritiated thymidine). The test is classed as cell-based.
The subject of the next test is phospho-LAT. The test is described as follows: Western blot of TCR related signaling, phospho-LAT. To be noted: 10 min pretreatment, 10 min PHA; compared to a stimulated untreated control. It is filed as cell-based, Human. As to the method:
(§1) Lymphocytes were seeded in a 6 well plate (1.0·10^7/well), pretreated for 10 minutes with S3.1, S3.4 or dexamethasone and stimulated for 10 minutes with PHA. The experiment was stopped by adding a large volume of ice cold PBS to the cells. The suspension was transferred to a tube, briefly spinned down in a centrifuge and the supernatant removed. The pellet was lysed by adding cold lysis buffer (0.1% NP40, 50 mM TrisHCl, 1 mM EDTA, 1 mM EGTA, 150 mM NaCl, 200 μM Na3VO4, 10 mM NaF and protease inhibitors) and incubating 20 minutes on ice.
(§2) To investigate the cell signaling events that are affected by treatment with S3.1 and S3.4, lysates were supplemented with sample buffer (188 mM Tris-Cl (pH 6.8), 3% SDS, 30% glycerol, 0.01% bromophenol blue, 15% β-mercaptoethanol), heated to 95° C. for 5 minutes, cooled on ice and sonicated. Samples were then run on 10% SDS-PAGE gel, blotted to PVDF membrane and incubated with antibodies for phospho-Zap70 (Cell Signaling Technology (Beverly, Mass.)) and phospho-LAT (Cell Signaling Technology (Beverly, Mass.)). To show equal loading of the samples the blot was incubated with an antibody directed against beta-actin (Santa Cruz Biotechnology (Heidelberg, Germany)).
A general note: Immunoblotting shows a protein as a band on a membrane.

The subject of test [2] is interaction between lymphocyte-specific protein tyrosine kinase (LCK) and its chaperone Hsp90. Briefly: Immunoprecipitation of Lck and blotting for Hsp90. The test is classed as cell-based, Human. To be noted: Lck immunoprecipitation, PHA stimulated lymphocytes. As to the method:
as §1
The kinase Lck acts as a gate keeper to T cell receptor (TCR) related signaling as it is one of the first and most up stream kinases to be activated upon stimulation of the TCR. As downstream signaling of the TCR is inhibited by S3.1 and S3.4 treatment interactions with Lck were investigated by immunoprecipitating Lck and blotting for Hsp90. For immunprecipitation experiments 1.0·10^7 cells were used per condition. Cells were pelleted and lysed as described previously. The supernatant was precleared by adding 10 μl Protein A/G UltraLink resin (Pierce Biotechnology, Rockford, USA) for 30 minutes at 4° C. Beads were spinned down and discarded. Samples were incubated with 2 μg primary antibody and 25 μl beads for 2 hours at 4° C. Beads were washed with PBS, sample buffer was added and heated to 95° C. for 5 minutes.

Another test deals with phospho-Zap70. The test is described as follows: Western blot of TCR related signaling, phospho-Zap70. It is filed as cell-based, Human. As to conditions: 10 min pretreatment, 10 min PHA; compared to a stimulated untreated control. How it is done: as §1, §2

“Also recorded” adds a separate entry of the source.

Regarding `c1ccc(CN2CCCC(c3ccnc(SCCN4CCCC4)n3)C2)cc1` (stereo not shown) [S3.4, 4-(1-benzylpiperidin-3-yl)-2-(2-(pyrrolidin-1-yl)ethylthio)-pyrimidine], the “effect on lymphocyte proliferation” value in test [1] is given as “antiproliferative effect; also recorded: shows effect on lymphocyte proliferation”. Besides, in the test on phospho-LAT, the “phosphorylation level of scaffolding protein LAT” value was “lower phosphorylation levels”. In test [2], the “interaction between LCK and its chaperone Hsp90” value is “lost”. For the same molecule, in the test on phospho-Zap70, the “phosphorylation level of kinase Zap70” value was “lower phosphorylation levels”.
